{"source": "paper PMC7305224", "about": "“Mutually stabilizing interactions between proto-peptides and RNA” (Nature Communications, 2020)", "key": {"[1]": {"tested_on": "10-mer RNA duplex (5′-6-FAM-rCrGrCrUrArArArUrCrG-3′ & 5′-rCrGrArUrUrUrArGrCrG-3IABkFQ-3′)", "assay": "RNA duplex Tm by rtPCR fluorescence with dry-down reaction mixtures", "format": "binding", "conditions": "not subjected to the dry-down reaction (non-dried)", "excerpt": "Accordingly, we determined the effect of cationic proto-peptides on RNA duplex stability by monitoring changes in the melting temperature (Tm) of a short 10mer RNA duplex in the presence or absence of individual proto-peptide samples (Fig. 2). The complementary RNA strands were 5′- or 3′-labeled with either a fluorophore or a quencher so that the degree of RNA hybridization could be monitored by fluorescence in rtPCR instrumentation (Supplementary Fig. 9). […] For the Tm measurements, the proto-peptide samples were diluted to a final concentration of 25 mM (based on the amount of cationic amino acid used at the start of the dry-down) and mixed with the RNA duplex (2.5 μM each strand).\nDry-down reaction products were dissolved in deionized water to give a 100 mM stock solution based on the amount of monomers used at the start of the dry-down. […]\nPrior to Tm analyses, RNA samples were annealed in the appropriate buffer by heating to 75 °C and slowly cooling to room temperature. […] For analyses involving dry-down reaction mixtures, the Tm was determined by monitoring fluorescence increase upon melting of a fluorophore/quencher-labeled RNA duplex (5′-rCrGrArUrUrUrArGrCrG-/3IABkFQ/-3′ and 3′-rGrCrUrArArArUrCrGrC-FAM-5′) using a BioRad CFX Connect rtPCR instrument with a heating ramp of 1 °C/min and 20 μL final sample volumes."}, "[2]": {"tested_on": "RNA duplex 1", "assay": "CD analysis of RNA duplex with peptides/depsipeptides", "format": "binding", "conditions": "for changes in CD spectra of the RNA duplex upon addition: RNA duplex 5 µM, peptide/depsipeptide 0–10 µM, MES-TEA buffer (60 mM)", "source_text": "The gel was cropped at the edges for clarity. […] […] Red and blue colors of the filled circles correspond to curves of the same color in panel (c). […] […] Scans were from 320 nm to 220 nm with a bandwidth of 5 nm, data pitch of 0.2 nm, and scan rate of 50 nm/min with three accumulations. […] Data were collected in independent triplicates and the data were averaged. Finally, data were smoothed and plotted using Matlab."}, "[3]": {"conditions": "cited from earlier work", "source_text": "Several lines of evidence support the importance of electrostatic interactions in the observed stabilizations of RNA duplexes. First, as would be expected, higher numbers of cationic residues present in the depsipeptide/peptide led to greater increases in RNA duplex Tm (Table 1, entries #1–7). Second, the effect of His-containing depsipeptides was pH-dependent (Figs. 2d and 3c, d), as expected based on the His pKa of ~6.0. […] The ineffectiveness of this sequence is probably due to the l ..."}, "[4]": {"tested_on": "RNA duplex 1 (5′-rCrGrCrUrArArArUrCrG-3′ & 5′-rCrGrArUrUrUrArGrCrG-3′)", "assay": "RNA thermal denaturation (Tm) by UV hyperchromicity at 260 nm with synthetic peptides/depsipeptides, RNA duplex 1", "format": "binding", "conditions": "100 mM NaCl", "description": "Each sample contained RNA duplex 1 (5′-rCrGrCrUrArArArUrCrG-3′ and 5′-rCrGrArUrUrUrArGrCrG-3′, 2.5 μM strand) and peptide/depsipeptide (100 μM) in buffered solution (10 mM phosphate, 100 mM NaCl, pH 7.0 or 10 mM acetate, 100 mM NaCl, pH 5.0). a Structures of depsipeptides used to systematically characterize cationic side chain effects on RNA duplex stability. Lactic acid residues are highlighted. Ac acetyl, Aba acetamidobenzoic acid, which was appended to the N-terminus to increase UV absorbance. b Structures of the Fmoc-didepsipeptide building blocks used for solid-phase synthesis of depsipeptide sequences. Fmoc fluorenylmethoxycarbonyl. c Comparative effects of oligo-didepsipeptide sequences 2–6 and analogous oligo-dipeptide and on the Tm of the RNA duplex (number of independent measurements: n = 3 for Arg and Lys sequences; n = 2 for His and Dab sequences; n = 4 for Orn sequences). The shaded areas correspond to the mean ± SD Tm measured for the RNA duplex alone (n = 16 independent measurements). Data are shown as a scatter plot with mean ± SD. d Comparative effects on RNA duplex Tm of depsipeptide sequences containing a single backbone ester (number of independent measurements: n = 3 for Arg; n = 2 for His, Orn, and Dab; n = 4 for Lys), relative to RNA duplex alone (n = 16 independent measurements). Data are shown as a scatter plot with mean ± SD. e To assess the impact of different cationic side chains on depsipeptide degradation rates, depsipeptides 7–11 (40 μM) were incubated at 37 °C in buffer (100 mM HEPES, 10 mM NaCl, pH 7.3). After 5 min, the reactions were quenched by the addition of 3% TFA, and samples were analyzed by HPLC.\n(§1) Prior to Tm analyses, RNA samples were annealed in the appropriate buffer by heating to 75 °C and slowly cooling to room temperature. Depsipeptide/peptide was added to the annealed RNA and incubated at 4 °C for 20 min prior to carrying out the analysis. For analyses involving dry-down reaction mixtures, the Tm was determined by monitoring fluorescence increase upon melting of a fluorophore/quencher-labeled RNA duplex (5′-rCrGrArUrUrUrArGrCrG-/3IABkFQ/-3′ and 3′-rGrCrUrArArArUrCrGrC-FAM-5′) using a BioRad CFX Connect rtPCR instrument with a heating ramp of 1 °C/min and 20 μL final sample volumes. For analyses involving pure, synthetic compounds, the Tm of the RNA was determined by monitoring UV hyperchromicity at 260 nm using a Varian Cary Bio-100 spectrophotometer, with a heating ramp of 1 °C/min and 0.5- or 1-cm pathlength cells. The following RNA sequences were used: RNA duplex 1 = 5′-rCrGrCrUrArArArUrCrG-3′ and 5′-rCrGrArUrUrUrArGrCrG-3′; RNA duplex 2 = 5′-rArArArArUrUrUrArUrArUrUrArUrUrA-3′ and 5′-rUrArArUrArArUrArUrArArArUrUrUrU-3′; RNA duplex 3 = 5′-rArArCrGrUrArUrArCrGrUrU-3′ (palindromic); and H26a RNA = 5′-rArUrGrArGrUrArArCrCrGrUrArArGrGrUrGrArArArUrU-3′. RNA was present in each assay at a final concentration of 2.5 μM of the folded structure (2.5 μM each strand for duplex 1 and duplex 2, 5.0 μM palindromic strand for duplex 3, 2.5 μM strand for H26a RNA). Tm values were determined by nonlinear fitting of the melting curves using GraphPad Prism 8.2.1 for duplex 1 and H26a, or by finding the maximum of the first derivative of the curve using the Varian Cary Bio-100 software for duplex 2 and duplex 3."}, "[5]": {"tested_on": "RNA duplex 2 (5′-rArArArArUrUrUrArUrArUrUrArUrUrA-3′ and 5′-rUrArArUrArArUrArUrArArArUrUrUrU-3′)", "assay": "RNA thermal denaturation (Tm) by UV hyperchromicity, RNA duplex 2", "format": "binding", "description": "as §1, with “3. Both methods of determining the Tm gave similar values for a given denaturation curve.” for “3.”"}, "[6]": {"tested_on": "H26a RNA (5′-rArUrGrArGrUrArArCrCrGrUrArArGrGrUrGrArArArUrU-3′)", "assay": "RNA thermal denaturation (Tm) by UV hyperchromicity, H26a RNA hairpin", "format": "binding", "description": "as §1, with “3. Both methods of determining the Tm gave similar values for a given denaturation curve.” for “3.”"}, "[7]": {"tested_on": "RNA duplex 3 (5′-rArArCrGrUrArUrArCrGrUrU-3′, palindromic)", "assay": "RNA thermal denaturation (Tm) by UV hyperchromicity, RNA duplex 3", "format": "binding", "description": "as §1, with “3. Both methods of determining the Tm gave similar values for a given denaturation curve.” for “3.”"}}, "note": "Non-standard residues stand in square brackets, D forms with d. Residues, ends and D or L forms follow the SMILES beside them. Dab = NCC[C@H](N)C(=O)O; Lac = C[C@H](O)C(=O)O", "data": [{"smiles": "NCCCCC(O)C(=O)O", "note": "(stereo not shown) [hah, 2-hydroxy-6-aminohexanoic acid]", "values": [{"measurement": "effect on RNA duplex Tm, non-dried controls", "setting": "[1]", "result": "no effect on the Tm"}]}, {"smiles": "NCCC(O)C(=O)O", "note": "(stereo not shown) [hab, 2-hydroxy-4-aminobutyric acid]", "values": [{"measurement": "effect on RNA duplex Tm, non-dried controls", "setting": "[1]", "result": "no effect on the Tm"}]}, {"smiles": "CC(=O)N[C@@H](Cc1ccc(O)cc1)C(=O)NCC(=O)N[C@@H](C)C(=O)N[C@@H](CCN)C(=O)N[C@@H](CCCCN)C(=O)N[C@@H](C)C(=O)N[C@@H](CCN)C(=O)N[C@@H](CCCCN)C(N)=O", "note": "[Ac-Tyr-Gly-Ala-Dab-Lys-Ala-Dab-Lys-NH2] (Ac-YGA[Dab]KA[Dab]K-NH2)", "values": [{"measurement": "changes in CD spectra of the RNA duplex upon addition", "setting": "[2]", "result": "physical association"}]}, {"smiles": "N[C@@H](Cc1c[nH]cn1)C(=O)O", "note": "[His, histidine]", "values": [{"measurement": "pKa", "setting": "[3]; His side chain, no reference given", "result": "~ 6.0"}]}, {"smiles": "CC(=O)N[C@@H](Cc1ccc(O)cc1)C(=O)NCC(=O)N[C@@H](C)C(=O)N[C@@H](CCN)C(=O)N[C@@H](CCCCN)C(=O)N[C@@H](C)C(=O)N[C@@H](CCN)C(=O)N[C@@H](CCCCN)C(=O)N[C@@H](C)C(=O)N[C@@H](CCN)C(=O)N[C@@H](CCCCN)C(=O)N[C@@H](C)C(=O)N[C@@H](CCN)C(=O)N[C@@H](CCCCN)C(=O)N[C@@H](C)C(=O)N[C@@H](CCN)C(=O)N[C@@H](CCCCN)C(N)=O", "note": "(Ac-YGA[Dab]KA[Dab]KA[Dab]KA[Dab]KA[Dab]K-NH2)", "values": [{"measurement": "changes in CD spectra of the RNA duplex upon addition", "setting": "[2]", "result": "physical association"}]}, {"smiles": "NCC(N)C(=O)O", "note": "(stereo not shown) [Dpr, 2,3-diaminopropionic acid]", "values": [{"measurement": "pKa of side chain β-amine", "setting": "[3]; when incorporated into oligomeric sequences", "result": "~ 6.3"}]}, {"smiles": "CC(=O)N[C@@H](Cc1ccc(O)cc1)C(=O)NCC(=O)N[C@@H](C)C(=O)N[C@@H](CCN)C(=O)N[C@@H](CCCCN)C(=O)O[C@@H](C)C(=O)N[C@@H](CCN)C(=O)N[C@@H](CCCCN)C(=O)O[C@@H](C)C(=O)N[C@@H](CCN)C(=O)N[C@@H](CCCCN)C(=O)O[C@@H](C)C(=O)N[C@@H](CCN)C(=O)N[C@@H](CCCCN)C(N)=O", "note": "[compound 14, Ac-Tyr-Gly-Ala-Dab-Lys-lac-Dab-Lys-lac-Dab-Lys-lac-Dab-Lys-NH2] (Ac-YGA[Dab]K[Lac][Dab]K[Lac][Dab]K[Lac][Dab]K-NH2)", "values": [{"measurement": "changes in CD spectra of the RNA duplex upon addition", "setting": "[2]", "result": "changes were observed in the CD spectra"}, {"measurement": "Kd", "setting": "[2]; change in CD signal at 266 nm, one-site binding model, RNA duplex 1 5 μM each strand, depsipeptide 0–10 μM, MES-TEA buffer pH 6, 5 °C, independent triplicates averaged, read-out: apparent Kd", "result": "~3000", "unit": "nM"}, {"measurement": "RNA duplex 1 Tm", "setting": "[4]; observed Tm with peptide/depsipeptide 100 µM, pH 7.0, 10 mM phosphate, RNA alone 43.8 ± 0.4, mean ± SD of 2-4 independent experiments", "result": "52.4 ± 1.5", "unit": "°C"}, {"measurement": "RNA duplex 1 ΔTm", "setting": "[4]; peptide/depsipeptide 100 μM, RNA 2.5 μM each strand, 10 mM phosphate, pH 7.0, vs RNA alone at matched pH, mean of 2–4 replicates", "result": 8.6, "unit": "°C"}, {"measurement": "RNA duplex 2 Tm", "setting": "[5]; observed Tm with peptide/depsipeptide 100 µM, pH 7.0, RNA alone 33.7 ± 0.7, mean ± SD of 2-4 independent experiments", "result": "42.8 ± 0.6", "unit": "°C"}, {"measurement": "RNA duplex 2 ΔTm", "setting": "[5]; peptide/depsipeptide 100 μM, RNA 2.5 μM each strand, pH 7.0, 10 mM phosphate, 100 mM NaCl, mean of 2–4 replicates", "result": 9.1, "unit": "°C"}, {"measurement": "H26a RNA Tm", "setting": "[6]; observed Tm with peptide/depsipeptide 100 µM, pH 7.0, RNA alone 53.4 ± 0.5, mean ± SD of 2-4 independent experiments", "result": "63.8 ± 0.6", "unit": "°C"}, {"measurement": "H26a RNA ΔTm", "setting": "[6]; peptide/depsipeptide 100 μM, RNA 2.5 μM strand, pH 7.0, 10 mM phosphate, 100 mM NaCl, mean of 2–4 replicates", "result": 10.4, "unit": "°C"}, {"measurement": "RNA duplex 3 Tm", "setting": "[7]; observed Tm with peptide/depsipeptide 100 µM, pH 7.0, RNA alone 48.6 ± 0.7, mean ± SD of 2-4 independent experiments", "result": "58.6 ± 0.7", "unit": "°C"}, {"measurement": "RNA duplex 3 ΔTm", "setting": "[7]; peptide/depsipeptide 100 μM, 5.0 μM palindromic strand, pH 7.0, 10 mM phosphate, 100 mM NaCl, mean of 2–4 replicates", "result": 10.0, "unit": "°C"}]}]}
